Data taken from PubChem BioAssay (NCI).
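Exposure lasted 48 hours, with cells grown in 96-well plates and compounds tested at five concentrations. The concentration for full growth arrest is given as TGI.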

Key:
Experiment in all cases: NCI tumour cell line growth inhibition, 48 h
CAKI-1 renal = system: CAKI-1 renal
SF-539 CNS = system: SF-539 CNS
SNB-19 CNS = system: SNB-19 CNS
NCI-H460 lung = system: NCI-H460 lung
SN12C renal = system: SN12C renal
XF 498 CNS = system: XF 498 CNS
HCC-2998 colon = system: HCC-2998 colon
KM20L2 colon = system: KM20L2 colon
SK-MEL-2 melanoma = system: SK-MEL-2 melanoma
UO-31 renal = system: UO-31 renal
CCRF-CEM leukemia = system: CCRF-CEM leukemia
MOLT-4 leukemia = system: MOLT-4 leukemia
ACHN renal = system: ACHN renal
RXF 393 renal = system: RXF 393 renal
LOX IMVI melanoma = system: LOX IMVI melanoma
K-562 leukemia = system: K-562 leukemia
UACC-257 melanoma = system: UACC-257 melanoma
HT29 colon = system: HT29 colon
HCT-15 colon = system: HCT-15 colon
OVCAR-8 ovarian = system: OVCAR-8 ovarian
LXFL 529 NSCLC = system: LXFL 529 NSCLC
SW-620 colon = system: SW-620 colon
OVCAR-3 ovarian = system: OVCAR-3 ovarian
KM12 colon = system: KM12 colon
M14 melanoma = system: M14 melanoma
OVCAR-5 ovarian = system: OVCAR-5 ovarian
DMS 273 small cell lung = system: DMS 273 small cell lung
EKVX NSCLC = system: EKVX NSCLC
SF-295 CNS = system: SF-295 CNS
SK-MEL-28 melanoma = system: SK-MEL-28 melanoma
SNB-75 CNS = system: SNB-75 CNS
SR leukemia = system: SR leukemia
HCT-116 colon = system: HCT-116 colon
NCI-H522 lung = system: NCI-H522 lung
DLD-1 colon = system: DLD-1 colon
UACC-62 melanoma = system: UACC-62 melanoma
HL-60(TB) leukemia = system: HL-60(TB) leukemia
A549 NSCLC = system: A549 NSCLC
HOP-92 NSCLC = system: HOP-92 NSCLC
M19-MEL melanoma = system: M19-MEL melanoma
SK-OV-3 ovarian = system: SK-OV-3 ovarian
IGROV1 ovarian = system: IGROV1 ovarian
NCI-H23 lung = system: NCI-H23 lung
HOP-18 NSCLC = system: HOP-18 NSCLC
OVCAR-4 ovarian = system: OVCAR-4 ovarian
SNB-78 CNS = system: SNB-78 CNS
786-0 renal = system: 786-0 renal
TK-10 renal = system: TK-10 renal
U251 CNS = system: U251 CNS
DMS 114 small cell lung = system: DMS 114 small cell lung
MALME-3M melanoma = system: MALME-3M melanoma
SK-MEL-5 melanoma = system: SK-MEL-5 melanoma
COLO 205 colon = system: COLO 205 colon
HOP-62 NSCLC = system: HOP-62 NSCLC
A498 renal = system: A498 renal
SF-268 CNS = system: SF-268 CNS
RPMI-8226 leukemia = system: RPMI-8226 leukemia
NCI-H226 lung = system: NCI-H226 lung
RXF-631 renal = system: RXF-631 renal

Measured: TGI

O=c1[nH]c(=O)n(C2OC(CO)C(O)C2O)cc1OCC(F)(F)F (stereo not drawn)
not listed: RXF-631 renal
> 100 µM: all other assays above

CC1NC(=O)C2=C1C(N)=NC(=O)C2 (stereo not drawn)
not listed: CCRF-CEM leukemia | HT29 colon | HL-60(TB) leukemia | HOP-62 NSCLC | A498 renal | RXF-631 renal
> 100 µM: all other assays above

COc1ccc2c(c1)c(=O)c1c(NCCN(C)C)ccc3nnn2c31
21.7 µM: A498 renal
23.9 µM: SK-OV-3 ovarian
15.9 µM: SF-539 CNS
5.51 µM: HL-60(TB) leukemia
17.2 µM: MALME-3M melanoma
13.3 µM: UO-31 renal | TK-10 renal
15.4 µM: HOP-62 NSCLC
21.8 µM: SNB-78 CNS
13.9 µM: SF-295 CNS
6.13 µM: RPMI-8226 leukemia
2.9 µM: LOX IMVI melanoma | SR leukemia
19.4 µM: DMS 114 small cell lung
13.1 µM: NCI-H23 lung
19.7 µM: SNB-19 CNS | SN12C renal | SK-MEL-2 melanoma
16.2 µM: M14 melanoma
13.4 µM: HCT-116 colon
16 µM: HCT-15 colon
9.44 µM: NCI-H226 lung
7.35 µM: HOP-18 NSCLC
8.54 µM: NCI-H460 lung
2.99 µM: MOLT-4 leukemia
15.8 µM: NCI-H522 lung
15.5 µM: K-562 leukemia
14.1 µM: SK-MEL-5 melanoma
10.5 µM: RXF 393 renal
13.6 µM: CAKI-1 renal | OVCAR-8 ovarian
17.9 µM: EKVX NSCLC
20.8 µM: M19-MEL melanoma
9.11 µM: SW-620 colon
14.6 µM: ACHN renal
18 µM: LXFL 529 NSCLC
14.8 µM: 786-0 renal
6.03 µM: KM12 colon
20.7 µM: SNB-75 CNS
10.3 µM: CCRF-CEM leukemia
17.8 µM: HCC-2998 colon | UACC-62 melanoma
17 µM: UACC-257 melanoma
14.9 µM: SF-268 CNS
8.17 µM: OVCAR-4 ovarian
14 µM: RXF-631 renal
12.8 µM: A549 NSCLC
17.4 µM: IGROV1 ovarian
14.7 µM: KM20L2 colon
19.6 µM: OVCAR-3 ovarian | OVCAR-5 ovarian
18.8 µM: SK-MEL-28 melanoma
10.8 µM: HOP-92 NSCLC
12.3 µM: HT29 colon
20 µM: DLD-1 colon
16.5 µM: U251 CNS
10 µM: COLO 205 colon
